Laboratory results reported in PMC10534582, “A Pharmacokinetic Study of Sixteen Major Bioactive Components of Jinshui-Huanxian Granules in Pulmonary Fibrosis Model and Control Rats Using Orbitrap Fusion Mass Spectrometry” (Molecules, 2023).
Read-outs that look alike come from different tables or passages of the source.

Assay: Pharmacokinetics of JHG components in control rats after intragastric administration of JHGs (plasma, Orbitrap Fusion MS)
Assay type: in vivo, Sprague Dawley (SD) rats
Conditions: for AUC(0-inf) / AUC(0-t) / half-life / MRT last / MRT inf / Tmax / Cmax: male, rat, plasma, po; for MRT last: read-out: MRT(0-t); for MRT inf: read-out: MRT(0-∞); for Cmax: intragastric JHGs; for pharmacokinetic process (Cmax and AUCs versus dosage): low, medium, high doses of JHGs
Method: Healthy male Sprague Dawley (SD) rats of SPF grade (240 ± 20 g) were purchased from Sipeifu (Beijing, China) Biotechnology Co., Ltd. (Beijing, China), Certificate of Conformity No.: SCYK (Beijing, China) 2019-0015, Animal Quality Certificate No.: 110324220102348616. They were housed in the Animal Center of Henan University of Traditional Chinese Medicine, which passed the ethical audit, ethics number: DWLL202208003, breeding Co. 24 °C, relative humidity 50 ± 2%. The animals fasted for 12 h before the experiment and drank water freely. All feeding and experimental studies on experimental animals were in accordance with the regulations on the Management of Experimental Animals in Henan Province.
Twenty-four healthy male SD rats or PF model rats, weighing 240 ± 20 g, fasted for 12 h before the experiment and drank water freely. Both kinds of rats were randomly divided into four groups. Blank group: equal dose of water by intragastric, low dose; administration group: rats were given the equivalent human dose of JHGs by intragastric, i.e., 10.8 g of raw drug/kg/d (5.70 g/kg/d); medium-dose administration group: 2 times the human equivalent dose of JHGs by intragastric, i.e., 21.6 g of raw drug/kg/d (11.41 g/kg/d); high-dose administration group: 4 times the human equivalent dose of JHG, i.e., 43.2 g of raw drug/kg/d (22.81 g/kg/d). Blood was collected from the tail vein before and 0.083, 0.25, 0.5, 0.75, 1, 1.5, 2, 3, 4, 6, 8, 12, 18, and 24 h after dosing, respectively. A total of 0.5 mL was placed in a heparin sodium centrifuge tube. Whole blood was left for 30 min and then centrifuged in a low-temperature freezing centrifuge (4 °C, 3000 r/min) for 15 min. The upper layer of plasma was collected and stored in a refrigerator at −80 °C.
We added 50 μL of internal standard solution and 800 μL of methanol, shook for 15 min, then centrifuged at 12,000 r/min for 10 min, took the supernatant, dried in a centrifuge concentrator, added 50 μL of the initial mobile phase to the residue, dissolved, centrifuged, then separated the upper layer of the solution used as the test solution. A total of 5 μL test solution was taken into the sample for analysis. For each compound with a certain dosage, the same procedure is repeated six times in parallel. The concentration in plasma was calculated by the internal standard method.
Accucore C18 (100 mm × 2.1 mm, 2.6 μm) column at 25 °C, the mobile phase was methanol (A)-0.1% formic acid aqueous solution (B). The gradient elution program was 0–4 min (65% B-40% B), 4–5 min (40% B-40% B), 5–6 min (40% B-28% B), and 6–7 min (28% B-19% B), 7–7.5 min (19% B-10% B), 7.5–11 min (10% B-0% B), the flow rate was 0.2 mL/min, and the injection volume was 5 μL.
The ion source was an electrospray ionization source (ESI). Nitrogen acted as a carrier gas. The sheath gas pressure was 35 Arb. The auxiliary gas pressure was 7 Arb. The spray voltage was 3.50 kv(+), 2.50 kv(-). The ion transport tube temperature was regulated at 300 °C. Gasification temperature was 275 °C. The resolution was 50,000. The scanning mode was set as SIM mode. The optimized parameters obtained are in Table 5.
Under the established Orbitrap Fusion MS method, the pharmacokinetics of JHG in rats were studied to investigate the dynamic changes of the active components in rats. The pharmacokinetic parameters of each component in each dosing group were calculated by […] model analysis using Kinetica 5.1 (Innaphase, Waltham, MA, USA) pharmacokinetic analysis software. The pharmacotemporal curves were plotted by the plotting software. SPSS 19.0 (IBM, Armonk, NY, USA) was used to analyze all the parameters. Independent sample tests were performed after natural logarithmic transformation for AUC0–t, Cmax. The nonparametric Mann–Whitney test was applied for Tmax, t½, and MRT0–t. p < 0.05 was considered statistically significant.

[1] = Sprague Dawley, 5.7 g/kg/day, JHGs low dose 5.70 g/kg/d
[2] = Sprague Dawley, 5.7 g/kg/day, JHGs low dose 5.70 g/kg/d, read-out: Tmax
[3] = Sprague Dawley, 5.7 g/kg/day, low dose 5.70 g/kg/d, n=6 (1st of 3 stacked values)
[4] = Sprague Dawley, 11.41 g/kg/day, JHGs medium dose 11.41 g/kg/d
[5] = Sprague Dawley, 11.41 g/kg/day, JHGs medium dose 11.41 g/kg/d, read-out: Tmax
[6] = Sprague Dawley, 11.41 g/kg/day, medium dose 11.41 g/kg/d, n=6 (2nd of 3 stacked values)
[7] = Sprague Dawley, 22.81 g/kg/day, JHGs high dose 22.81 g/kg/d
[8] = Sprague Dawley, 22.81 g/kg/day, JHGs high dose 22.81 g/kg/d, read-out: Tmax
[9] = Sprague Dawley, 22.81 g/kg/day, high dose 22.81 g/kg/d, n=6 (3rd of 3 stacked values)
[10] = Sprague-Dawley, after administration of JHGs, read-out: Tmax of all dosages

SMILES | Clearances (JHGs high dose 22.81 g/kg/d) | Vss (JHGs high dose 22.81 g/kg/d) | Clearances (JHGs low dose 5.70 g/kg/d) | Vss (JHGs low dose 5.70 g/kg/d) | Clearances (JHGs medium dose 11.41 g/kg/d) | Vss (JHGs medium dose 11.41 g/kg/d) | AUC(0-inf) [1] | AUC(0-t) [1] | half-life [1] | MRT last [1] | MRT inf [1] | Tmax [2] | Cmax [3] | AUC(0-inf) [4] | AUC(0-t) [4] | half-life [4] | MRT last [4] | MRT inf [4] | Tmax [5] | Cmax [6] | also measured
O=c1cc(-c2ccc(O)cc2)oc2cc(OC3OC(CO)C(O)C(O)C3O)cc(O)c12 (centres unmarked) [Apigenin-7-glucoside] | 7.33 ± 1.2 mL/min/kg | 6.6 ± 0.86 L | 3.3 ± 0.67 mL/min/kg | 3.94 ± 0.41 L | 6 ± 1.3 mL/min/kg | 5.33 ± 0.41 L | 29.1 ± 6.32 ng·h/mL | 20.2 ± 1.99 ng·h/mL | 15.4 ± 4.12 h | 8.84 ± 0.05 h | 20.1 ± 4.89 h | 1.83 ± 0.2 h | 1.99 ± 0.17 ng/mL | 28.9 ± 6.86 ng·h/mL | 22.2 ± 2.68 ng·h/mL | 11 ± 5.32 h | 7.89 ± 0.21 h | 15.3 ± 4.77 h | 1.5 h | 3.22 ± 0.44 ng/mL | AUC(0-inf) [7]: 46.5 ± 7.55 ng·h/mL; AUC(0-t) [7]: 36.5 ± 5.3 ng·h/mL; half-life [7]: 9.62 ± 0.54 h; MRT last [7]: 8.8 ± 0.07 h; MRT inf [7]: 15 ± 0.61 h; Tmax [8]: 1.67 ± 0.29 h; Cmax [9]: 3.88 ± 0.42 ng/mL; Tmax [10]: ≤ 2 h
CC1=C2CC3C(CC(=O)C4CC(O)CCC43C)C2CCC12OC1CC(C)CNC1C2C (centres unmarked) [Peimisine] | 3.3 ± 0.5 mL/min/kg | 3.96 ± 0.82 L | 2.5 ± 0.67 mL/min/kg | 3.26 ± 0.57 L | 3.17 ± 0.83 mL/min/kg | 3.98 ± 0.82 L | 19.5 ± 5.73 ng·h/mL | 12.4 ± 2.56 ng·h/mL | 16.5 ± 2.09 h | 9.16 ± 0.22 h | 22.8 ± 3.24 h | 4 h | 1.49 ± 0.16 ng/mL | 26.9 ± 7.93 ng·h/mL | 17.8 ± 4.48 ng·h/mL | 15.2 ± 1.25 h | 9.14 ± 0.03 h | 21.3 ± 1.78 h | 4 h | 2.08 ± 0.54 ng/mL | pharmacokinetic process (Cmax and AUCs versus dosage): linear pharmacokinetic process; AUC(0-inf) [7]: 48.9 ± 9.74 ng·h/mL; AUC(0-t) [7]: 34.9 ± 8.14 ng·h/mL; half-life [7]: 11.4 ± 0.71 h; MRT last [7]: 11.34 ± 0.11 h; MRT inf [7]: 19.8 ± 0.92 h; Tmax [8]: 8 h; Cmax [9]: 2.35 ± 0.53 ng/mL

Second part, led by results:

Clearances (JHGs high dose 22.81 g/kg/d) | Vss (JHGs high dose 22.81 g/kg/d) | Clearances (JHGs low dose 5.70 g/kg/d) | Vss (JHGs low dose 5.70 g/kg/d) | Clearances (JHGs medium dose 11.41 g/kg/d) | Vss (JHGs medium dose 11.41 g/kg/d) | AUC(0-inf) [1] | AUC(0-t) [1] | half-life [1] | MRT last [1] | MRT inf [1] | Tmax [2] | Cmax [3] | AUC(0-inf) [4] | AUC(0-t) [4] | half-life [4] | MRT last [4] | MRT inf [4] | Tmax [5] | Cmax [6] | SMILES | also measured
2.5 ± 0.17 mL/min/kg | 1.35 ± 0.09 L | 1 ± 0.17 mL/min/kg | 0.6 ± 0.08 L | 1.3 ± 0.17 mL/min/kg | 0.83 ± 0.06 L | 312 ± 26 ng·h/mL | 290 ± 24.4 ng·h/mL | 5.75 ± 0.55 h | 7.83 ± 0.02 h | 9.56 ± 0.13 h | 6 h | 44 ± 5.61 ng/mL | 433 ± 43.5 ng·h/mL | 402 ± 39.2 ng·h/mL | 5.75 ± 0.11 h | 8.56 ± 0.09 h | 10.3 ± 0.15 h | 6 h | 57.7 ± 5.09 ng/mL | O=c1cc(-c2ccc(O)c(O)c2)oc2cc(O[C@@H]3O[C@H](CO)[C@@H](O)[C@H](O)[C@H]3O)cc(O)c12 [Cynaroside] | AUCs compared among the analytes: highest; correlation between CL, AUCs (AUC(0–t), AUC (0–∞)), t½, and dose: there was a correlation; pharmacokinetic process (Cmax and AUCs versus dosage): linear pharmacokinetic process; AUC(0-inf) [7]: 472 ± 31.3 ng·h/mL; AUC(0-t) [7]: 438 ± 27.6 ng·h/mL; half-life [7]: 5.1 ± 0.13 h; MRT last [7]: 7.51 ± 0.01 h; MRT inf [7]: 9.2 ± 0.11 h; Tmax [8]: 6 h; Cmax [9]: 79.5 ± 3.5 ng/mL; Tmax compared among the analytes (no matter the dosages): longest
805.7 ± 251.3 mL/min/kg | 882.05 ± 234.11 L | 271.5 ± 60.7 mL/min/kg | 287.56 ± 59.62 L | 466.5 ± 143 mL/min/kg | 642.56 ± 174.23 L | 21.1 ± 6.95 ng·h/mL | 15.6 ± 4.99 ng·h/mL | 13.5 ± 1.64 h | 8.63 ± 0.2 h | 17.8 ± 2.23 h | 0.75 h | 2.51 ± 0.77 ng/mL | 22.3 ± 6.8 ng·h/mL | 14.4 ± 4.14 ng·h/mL | 18.7 ± 2.51 h | 8.19 ± 0.19 h | 23.3 ± 3.85 h | 0.75 h | 3.02 ± 0.58 ng/mL | COc1ccc(-c2cc(=O)c3c(OC)c(OC)c(OC)c(OC)c3o2)cc1OC [Nobiletin] | t1/2 (JHGs high dose 22.81 g/kg/d): 16.19 ± 7.02 h; AUC(0-inf) [7]: 25.9 ± 9.57 ng·h/mL; AUC(0-t) [7]: 17.9 ± 4.56 ng·h/mL; MRT last [7]: 7.37 ± 0.43 h; MRT inf [7]: 19.5 ± 7.12 h; Tmax [8]: 0.75 h; Cmax [9]: 4.46 ± 1.06 ng/mL; Tmax [10]: ≤ 2 h
2357.3 ± 393.5 mL/min/kg | 1831.33 ± 158.35 L | 1602 ± 417.2 mL/min/kg | 1528.44 ± 295.01 L | 2679.2 ± 604.3 mL/min/kg | 2003.58 ± 215.42 L | 55.6 ± 13 ng·h/mL | 42.4 ± 8.94 ng·h/mL | 13.2 ± 1.77 h | 7.84 ± 0.03 h | 16.1 ± 1.86 h | 0.75 h | 6.6 ± 1.48 ng/mL | 59.2 ± 14.8 ng·h/mL | 48.6 ± 10.1 ng·h/mL | 11.1 ± 1.41 h | 6.91 ± 0.23 h | 12.7 ± 1.67 h | 0.75 h | 11.7 ± 2.03 ng/mL | COc1ccc(C(C)=O)c(O)c1 [Paeonol] | AUC(0-inf) [7]: 131 ± 20.9 ng·h/mL; AUC(0-t) [7]: 106 ± 6.95 ng·h/mL; half-life [7]: 9.02 ± 3.68 h; MRT last [7]: 7.77 ± 0.37 h; MRT inf [7]: 13.3 ± 3.52 h; Tmax [8]: 2 h; Cmax [9]: 15.7 ± 1.66 ng/mL; Tmax [10]: ≤ 2 h
